Measured values: US10265374B2, “Occidiofungin formations and uses thereof” (MISSISSIPPI STATE UNIVERSITY, priority 2014, dated 2019)

Columns and labels:
[1] = Pharmacokinetics in mouse (i.v., LC-MS/MS of plasma); format: in vivo; settings: 2.5 mg/kg i.v., mice
Experimental: Six week old female BALB-C mice were used for this experiment. Occidiofungin, at a concentration of 2.5 mg/kg of body weight, was administered through the tail vein of each mouse. Nine mice were randomly selected for this experiment and were grouped into three groups of three mice each. Blood was drawn at 1, 3, 5, 7, 9, 12, 24 and 48 hours post injection (hpi) from the mice. 15 μl of blood was drawn from the lateral saphenous vein of each mouse for the first three time points. Blood from three mice were pooled together and added to 5 μl of 6.4% citric acid to prevent coagulation. From the fourth time point, blood was drawn from the tail vein of the mice. Blood samples were spun down at 13000 rpm for 10 minutes to separate the plasma. The plasma and the blood pellet obtained were stored separately at −20° C. for analysis. The plasma samples were thawed and the occidiofungin was extracted using a final concentration of 50% methanol. The protein precipitate was spun down at 13000 rpm for 10 minutes and the supernatant was used for analysis. The LC-MS/MS components were carried out at ThermoScientific laboratories. Liquid chromatography was done using Acclaim 120 C18 columns (Length: 150 mm; I.D: 2.1 mm; 5 μm) to purify the occidiofungin in the sample. The occidiofungin was then subjected to MS/MS using the ThermoScientific TSQ Vantage. Fragmentation of the occidiofungin (parent mass 1216 m/z) was carried out and the fragment of 1084 m/z, which corresponds to the occidiofungin molecule without the xylose sugar, was used for quantification of occidiofungin. All data were acquired and analyzed using TraceFinder (v 3.1).

[2] = Pharmacokinetics of occidiofungin in DOPC or DOPC:DPPG vesicles; format: in vivo, mice; settings: vesicle formulations, 2.5 mg/kg i.v., mice
Experimental: Entrapment of occidiofungin in vesicles was done using 1,2-Dioleoyl-sn-glycero-3-phosphocholine (DOPC) and 1,2-dipalmitoyl-sn-glycero-3-[phospho-rac-(3-lysyl(1-glycerol))] (DPPG) from Avanti polar lipids. Lipid cake formation and subsequent hydration was done according to the manufacturer's recommendation. Briefly, 20 mg/ml of DOPC in chloroform was placed in a glass beaker and dried by vacuum evaporation to remove the organic solvent. The lipid film formed was hydrated using a 1 μg/μl solution of occidiofungin in 1.5% (2-Hydroxypropyl)-β-cyclodextrin (Alfa Aesar), while maintaining the lipid concentration at 20 mg/ml and the solution was sonicated to form the vesicles. Similarly, DPPG was mixed with DOPC at a ratio of 9:1 (DOPC:DPPG) to make a homogenous lipid mixture at a concentration of 20 mg/ml and the same process of drying and hydration was repeated to make vesicles. Following vesicle formation, estimation of the amount of occidiofungin trapped inside each type of vesicle was done. The mixture containing free and vesicle trapped occidiofungin was passed through a gel filtration column containing Sephadex G-10 beads. The void volume (containing only the vesicle trapped occidiofungin) was collected and occidiofungin extracted using methanol (50% final concentration). Liquid chromatography was done on the extracted sample, and a standard and the concentration of occidiofungin in the extracted sample was estimated by a comparison of peak volumes.
Occidiofungin in DOPC and DOPC-DPPG, at a concentration of 2.5 mg/kg, with ˜1.25 mg/kg entrapped in vesicles, was administered to six female BALB/c mice respectively via intravenous administration. […] The mice were weighed prior to the start of the experiment and every 24 hours post injection (hpi).
Blood was drawn at time points 1 hpi, 3 hpi, 5 hpi, 7 hpi, 9 hpi, 12 hpi, 18 hpi, 24 hpi and 48 hpi. 15 μl of blood was drawn from the lateral saphenous vein of each mouse for the first three time points. Blood from three mice were pooled together and added to 5 μl of 6.4% citric acid to prevent coagulation. From the fourth time point, blood was drawn from the tail vein of the mice. Blood samples were spun down at 13000 rpm for 10 minutes to separate the plasma. The plasma and the blood pellet obtained were stored separately at −20° C. until analysis. The plasma samples were thawed and the occidiofungin was extracted using a final concentration of 50% methanol. The protein precipitate was spun down at 13000 rpm for 10 minutes and the supernatant was used for analysis. Liquid chromatography was done using Acclaim 120 C18 columns (Length: 150 mm; I.D: 2.1 mm; 5 μm) to purify the occidiofungin in the sample. The occidiofungin was then subjected to MS/MS. Fragmentation of the occidiofungin (parent mass 1200 and 1216 Da) was carried out and the fragment of 1068 and 1084 Da m/z, which corresponds to the occidiofungin molecule (A and B forms, respectively) without the xylose sugar, was used for quantification of occidiofungin. A calibration curve constructed using standard concentrations of occidiofungin in plasma was used to analyze the samples obtained from the mice for pharmacokinetics (See FIGS. 6A-6B & 7A-7B).

[3] = Solubility of occidiofungin; format: physicochemical
[4] = system: wide array of fungi; settings: cited from earlier work
[5] = system: Candida albicans; settings: Candida albicans (References 9, 10); cited from earlier work
[6] = system: yeast cells; settings: low drug concentrations (1 μg/ml, around 833 nM), Reference 2; cited from earlier work
[7] = system: Saccharomyces cerevisiae gene deletion mutants; settings: Δycal vs wild-type, Reference 2; cited from earlier work

occidiofungin
clearance from the system by 24 hours [1]: rapidly cleared
concentration at 9-12 hpi compared to the concentration at 7 hpi [1]: 2.5 times
concentration of occidiofungin relative to the TC50 value for the cancer strains [1]: three to six fold higher
time at which occidiofungin concentration peaked [1]: around 9 hpi
concentration by 48 hours ([1]; limit of quantification 50 ng/ml): below the level of quantification
peak concentration in blood/plasma ([1]; tail vein): 480 ng/mL
half-life [2]: ~14 h
O.D.600 after addition of vehicle to the purified dried drug ([3]; 1.5% hydroxy propyl-beta-cyclodextrin in PBS, suggests the drug went into solution): negligible absorbance difference to vehicle without drug
solubility in aqueous buffers ([3]; aqueous buffers): relatively low
concentrations at which antifungal activity was observed [4]: micromolar to sub micromolar
fungicidal activity compared with caspofungin [5]: more rapid
morphological change of yeast cells [6]: appeared to shrink in size
increase in resistance on deletion of the ycal gene [7]: 2 fold
